Active and inactive are the calls of the source. No cut-off for these calls is given here.
Key:
Mytilus edulis [1] = assay: Antifouling activity in Mytilus edulis galloprovincialis assessed as foot contraction at 100 ppm; format: functional
Mytilus edulis [2] = assay: Antifouling activity in Mytilus edulis galloprovincialis assessed as foot contraction at <10 ppm; format: functional, organism-based

For `C=C1[C@@H](C)C[C@H]2C[C@]1(C)CCC1=CC(=O)O[C@@]12O`, the Activity (Mytilus edulis [1]) was 100% and the Activity (Mytilus edulis [2]) was “inactive”.
